Series [1] has as its target T1, hTLR7 (Homo sapiens, UniProt Q9NYK1).
T1 construct: expressed in transfected cells; host or cells: HEK Blue hTLR7 cells
T1 sequence (Q9NYK1 27-1049): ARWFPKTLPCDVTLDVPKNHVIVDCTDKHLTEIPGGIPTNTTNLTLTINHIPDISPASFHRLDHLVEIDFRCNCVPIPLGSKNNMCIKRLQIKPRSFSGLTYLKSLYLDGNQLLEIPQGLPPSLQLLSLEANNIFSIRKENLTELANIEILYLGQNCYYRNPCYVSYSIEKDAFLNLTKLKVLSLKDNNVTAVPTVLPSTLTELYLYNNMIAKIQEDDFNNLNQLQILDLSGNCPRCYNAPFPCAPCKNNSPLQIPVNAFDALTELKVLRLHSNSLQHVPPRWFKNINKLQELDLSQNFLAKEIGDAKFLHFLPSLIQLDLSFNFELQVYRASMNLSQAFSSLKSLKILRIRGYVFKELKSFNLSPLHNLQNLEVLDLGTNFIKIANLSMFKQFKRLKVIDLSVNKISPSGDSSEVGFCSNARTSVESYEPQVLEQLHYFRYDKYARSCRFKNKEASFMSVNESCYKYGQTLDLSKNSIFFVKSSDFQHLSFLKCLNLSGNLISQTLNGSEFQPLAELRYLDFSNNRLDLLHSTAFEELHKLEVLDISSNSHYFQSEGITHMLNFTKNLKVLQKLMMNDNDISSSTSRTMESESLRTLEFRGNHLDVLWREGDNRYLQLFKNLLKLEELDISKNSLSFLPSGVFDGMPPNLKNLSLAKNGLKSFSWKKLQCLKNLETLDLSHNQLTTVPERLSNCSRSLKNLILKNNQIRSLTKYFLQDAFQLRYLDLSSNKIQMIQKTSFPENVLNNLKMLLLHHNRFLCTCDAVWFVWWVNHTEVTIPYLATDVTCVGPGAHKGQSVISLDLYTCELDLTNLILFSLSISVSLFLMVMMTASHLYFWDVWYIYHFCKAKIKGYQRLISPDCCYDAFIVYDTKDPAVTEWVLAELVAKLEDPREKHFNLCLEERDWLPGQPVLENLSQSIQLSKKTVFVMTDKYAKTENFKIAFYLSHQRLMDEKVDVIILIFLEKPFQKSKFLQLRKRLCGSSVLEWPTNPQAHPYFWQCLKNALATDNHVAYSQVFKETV
In words: HEK Blue hTLR7 cell assay of free TLR7/8 agonists. The conditions noted are these: for EC50: HEK Blue hTLR7 cells, free agonist; for TLR7/TLR8: ratio of EC50 hTLR7 to EC50 hTLR8. Type of series: cell-based. As to the method: (§1) This example covers toll-like receptor 7 (TLR7) and toll-like receptor 8 (TLR8) selectivity of imidazoquinoline agonists. Assessment of TLR7 and TLR8 selectivity for the free TLR7/8 agonists was performed using HEK Blue hTLR7 and hTLR8 cells over a large dose range of compounds. […] Activities were determined based on calculated EC50 (in μM) in each cell line, and are summarized in TABLE 4 below, with columns providing targets and rows providing compounds.

The nature of series [2]: SEC analysis of ADC aggregation (high molecular weight species) in plasma. Type of series: physicochemical. The conditions noted are these: ADC incubated with human or mouse plasma, FIG. 9. As to the method: Method I: Size-exclusion chromatography (SEC) was performed with a Waters ACQUITY UPLC system and an Acquity UPLC Protein BEH SEC Column, (200 Å, 1.7 μm, 4.6×150 mm, PN: 186005225). The mobile phase used was 7.5% isopropanol in 92.5% aqueous (25 mM sodium phosphate, 350 mM NaCl, pH 6.8), v/v. Elution was performed isocratically at a flow rate of 0.4 mL/min at ambient temperature.
To determine if any of these differences in activity potentially resulted from increases in aggregation as a subsequent result of changes in charge, SEC analysis was performed. ADCs containing either S18a (methyl ester) or S18b (carboxylic acid) were incubated with both human or mouse plasma and assessed for the formation of high molecular weight species (HMW) over time.
Background: In gel filtration, larger molecules generally elute earlier.

Series [3] deals with T2, hTLR8 (Homo sapiens, UniProt Q9NR97).
T2 construct: expressed in transfected cells; host or cells: HEK Blue hTLR8 cells
T2 sequence (Q9NR97 27-1041): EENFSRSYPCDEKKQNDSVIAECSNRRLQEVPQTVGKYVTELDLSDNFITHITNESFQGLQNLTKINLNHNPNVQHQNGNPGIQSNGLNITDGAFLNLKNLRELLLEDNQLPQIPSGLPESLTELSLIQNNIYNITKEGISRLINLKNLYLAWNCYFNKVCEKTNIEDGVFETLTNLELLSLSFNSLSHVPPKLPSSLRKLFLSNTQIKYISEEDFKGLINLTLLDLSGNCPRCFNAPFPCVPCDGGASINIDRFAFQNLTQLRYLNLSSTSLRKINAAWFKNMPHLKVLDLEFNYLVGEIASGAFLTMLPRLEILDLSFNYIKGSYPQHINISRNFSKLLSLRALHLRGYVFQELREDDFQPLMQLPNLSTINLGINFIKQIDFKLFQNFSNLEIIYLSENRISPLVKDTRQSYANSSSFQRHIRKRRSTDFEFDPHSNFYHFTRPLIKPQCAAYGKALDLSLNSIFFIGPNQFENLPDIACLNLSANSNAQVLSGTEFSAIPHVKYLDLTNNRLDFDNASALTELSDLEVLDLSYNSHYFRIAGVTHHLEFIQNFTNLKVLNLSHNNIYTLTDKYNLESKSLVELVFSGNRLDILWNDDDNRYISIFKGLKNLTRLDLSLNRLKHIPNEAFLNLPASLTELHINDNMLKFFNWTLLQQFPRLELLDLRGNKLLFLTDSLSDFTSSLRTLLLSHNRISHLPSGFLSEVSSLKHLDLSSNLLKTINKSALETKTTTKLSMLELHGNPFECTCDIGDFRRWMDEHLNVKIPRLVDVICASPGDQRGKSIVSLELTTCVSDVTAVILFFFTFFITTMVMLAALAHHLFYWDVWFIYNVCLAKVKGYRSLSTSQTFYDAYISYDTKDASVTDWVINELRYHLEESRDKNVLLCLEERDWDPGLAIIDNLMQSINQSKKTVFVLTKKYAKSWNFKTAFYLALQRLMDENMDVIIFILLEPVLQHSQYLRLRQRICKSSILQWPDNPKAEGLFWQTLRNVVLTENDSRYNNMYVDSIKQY
In words: HEK Blue hTLR8 cell assay of free TLR7/8 agonists. Type of series: cell-based. The conditions noted are these: HEK Blue hTLR8 cells, free agonist. How it is done: as §1

In series [4] the test system is primary human PBMCs. Briefly: Cytokine induction in primary human PBMCs by small molecule TLR7/8 agonists (Luminex). The conditions noted are these: free drug. In kind it is cell-based. As to the method:
This example covers dose dependent human immune cell activation by small molecule TLR7/8 agonists. Primary human PBMCs were isolated from peripheral whole blood from human donors and were subjected to treatment with increasing concentrations of the agonists diluted in PBS. Cell culture supernatants were harvested 24 h after treatment and analyzed for induction of cytokines via multiplex ELISAs (Luminex).
Several small molecule TLR7/8 agonists were assessed for their ability to activate human immune cells in a dose dependent manner. Primary human PBMCs were isolated from peripheral whole blood from human donors and were subjected to treatment with increasing concentrations of the agonists diluted in PBS. 24 h after treatment cell culture supernatants were harvested and analyzed for induction of cytokines via multiplex ELISAs (Luminex).

In series [5] the test system is Renca tumors. Briefly: Renca kidney carcinoma model in Balb/c mice. The conditions noted are these: for loss of potency, C4-linked vs N1-linked conjugate: dose increase of C4-linked conjugate needed to match 2 mg/kg N1-linked conjugate. Type of series: in vivo, mouse. How it is done:
The difference in anti-tumor activity of the S18a and S18b conjugates was also assessed in the Renca kidney model. In this model, mice bearing Renca tumors were treated q7dx3 when tumors reached ˜100 mm^3 as indicated, and followed for mean group tumor growth (FIG. 14, top) and survival (FIG. 14, bottom) over time.
This example covers cancer treatment with EphA2 targeted TLR agonists. […] Balb/c mice were implanted with Renca tumor cells and when cells reached 100 mm^3 they were treated Q7dx3 treatments with 2.4 mg/kg of the indicated IDC, either non targeting isotype or an EphA2 targeting mAb.

The test system of series [6] is plasma cytokines. Briefly: Systemic plasma cytokine induction in non-tumor bearing Balb/c mice. In kind it is in vivo, mouse.
Series [7] relates to CT26 tumors. In kind it is in vivo. The text has this:
This example covers in vivo assessments of anti-tumor activity of ADCs with TLR7/8 agonists. An in vivo syngeneic system was used to assess the ability of the ADCs having TLR ⅞ agonists as the payload to induce immune responses and drive an anti-tumor immune response using a subcutaneous, heterotopic mouse colon carcinoma model (a CT26 system). Female Balb/c mice were implanted with 1×10^5 CT26 cells sub-cutaneously in the flank on day 0. When mean tumor size of 100 mm^3 (measured using the formula: Volume (mm^3)=0.5*Length*Width^2 where length is the longer dimension) was reached, the mice were randomized into treatment groups of 6 mice per group. Animals were then treated intraperitoneally with the indicated treatment every 7 days, for 3 doses total. Stock concentrations of the ADCs were diluted to the appropriate concentration and injected into animals in 100 μL volumes. Tumor length and width and mouse weights were measured throughout the study and tumor volume was calculated using the formula above. Animals were followed until tumor volume reached 1000 mm^3, when animals were then euthanized.

Series [8] has as its system plasma cytokines. Briefly: Systemic cytokine response in CT26-tumor bearing mice. Type of series: in vivo, mouse. As to the method: In addition to analyzing this response in non-tumor bearing animals simply on systemic immune activation, the C4/N1-linked TLR7/8 drug antibody conjugates were also administered to CT26-tumor bearing animals to determine how the linkage site affects cytokine response and anti-tumor response. The results are shown in FIG. 17, which provides MIP1b (top panel) and TNFα (bottom panel) responses generated with N1-(cmpd 9) and C4-(cmpd 11) linked compounds conjugated to targeting and non-targeting antibodies, as well as for untreated cells. […] This was true for targeted and non-targeted control conjugates.

[9] abbreviates: tumor/immune targeted mAb, 2 mg/kg every 7 days, 3 doses, FIG. 38.

Consider `CCCCc1nc2c(N)nc3cc(C(=O)OC)ccc3c2n1Cc1ccc(CN(C)C)cc1` [S18a], for which, in series [1], it took 0.44 µM to reach a half-maximal effect (EC50) and the TLR7/TLR8 turned out to be 0.04. Further, in series [2], the “aggregation (formation of high molecular weight species over time)” value is on record as “no significant difference in the amounts of aggregation”. This compound returned an EC50 in series [3] of 10.3 µM. The “IL12p40 and IL1β responses” value in series [4] (FIG. 5) is listed as “lower responses of both cytokines”. Further, the “potency and activity of cytokine induction (IL6, TNFα, MCP1, IP10)” value in series [4] (ranking, FIG. 30) is given as “other two most potent compounds”. Moreover, the “tumor growth and survival” value in series [5] (ADC, q7dx3 from ~100 mm^3, FIG. 14) is listed as “some tumor growth benefit though no real survival benefit”.
For the compound `CCCCc1nc2c(N)nc3cc(C(=O)OC)ccc3c2n1CCCCCN` [S14a], the EC50 in series [1] was determined as 2.53 µM; in series [3], 8.84 µM. The TLR7/TLR8 in series [1] was 0.28.
In the case of `CCCCc1nc2c(NC(=O)OCc3ccc(O[C@H]4O[C@H](CO)[C@@H](O)[C@H](O)[C@@H]4O)c(NC(=O)CCNC(=O)[C@H](CCCCNC(=O)CCOCCOCCOCCOCCOCCOCCOCCOCCOCCOCCOCCOC)NC(=O)CCN4C(=O)C=CC4=O)c3)nc3cc(C(=O)O)ccc3c2n1Cc1ccc(CN(C)C)cc1` [cmpd 11, 2-butyl-1-(4-((dimethylamino)methyl)benzyl)-4-((((3-((S)-44-(3-(2,5-dioxo-2,5-dihydro-1H-pyrrol-1-yl)propanamido)-38,45-dioxo-2,5,8,11,14,17,20,23,26,29,32,35-dodecaoxa-39,46-diazanonatetracontan-49-amido)-4-(((2R,3 S,4S,5 S,6R)-3,4,5-trihydroxy-6-(hydroxymethyl)tetrahydro-2H-pyran-2-yl)oxy)benzyl)oxy)carbonyl)amino)-1H-imidazo[4,5-c]quinoline-7-carboxylic acid], in series [6] (immune-targeted ADC, 2 mg/kg intraperitoneal), the “IL6 and TNFα levels, C4 vs N1 linkage” value is “no changes in IL6 or TNFα levels”. Also, in series [6] (immune-targeted ADC, 2 mg/kg intraperitoneal, plasma 3/6/24 h), the “reduction of systemic cytokine induction (MCP1, IP10, MIP1a, MIP1b, RANTES), C4 vs N1 linkage” value was 4.8 -fold. The “systemic cytokines (MIP1β, TNFα), C4 vs N1 linkage” value in series [6] (non-targeting ADC, FIG. 16) was “greatly diminished systemic cytokines and non-specific uptake”. The “animals reaching complete tumor cures” value in series [7] (EphA2 targeting mAb) was 50%. The “anti-tumor activity and tumor growth delay” value in series [7] (EphA2 targeting mAb or isotype, FIGS. 35, 36) is given as “all animals benefiting from tumor growth delay”. In series [7] (setting [9]), the animals fully cured result is “no cures”. In series [7] (setting [9]), the “median tumor volume (tumor growth delay)” value was “advantage with the TLR7/8 containing IDC vs the naked tumor/immune targeted mAb in terms of tumor growth delay”. Moreover, the “systemic activation (majority of cytokines), C4 vs N1 linkage” value in series [8] (targeted and non-targeted control conjugates, FIG. 17) was “reduced systemic activation”. Moreover, the “TNFα and MIP1β, C4 vs N1 linkage” value in series [8] (targeted antibody conjugate) is given as “equivalent for TNFα but showed benefit for MIP1β”. Besides, the tumor growth entry in series [5] (EphA2 targeting mAb or isotype, Q7dx3, 2-2.4 mg/kg) was “substantial tumor growth delayed noted for several of the animals”. The “loss of potency, C4-linked vs N1-linked conjugate” value in series [5] is recorded as about 4 ×; in series [5] (listed as Compound 11), “approximately 4 ×”.

In general, EC50 refers to the concentration needed to bring the measured effect to its halfway point. A lower EC50 goes with an effect from little substance.
